Source: paper PMC5241706, “Biochemical and Structural Characterization of Selective Allosteric Inhibitors of the Plasmodium falciparum Drug Target, Prolyl-tRNA-synthetase” (ACS Infectious Diseases, 2016)
Values joined by “and” are separate entries in the source; they are usually repeats but may differ in a detail not shown here. Identical values can stand only once.

Legend:
[1] = target: T1, PfProRS (Plasmodium falciparum, UniProt Q8I5R7); experiment: ATP consumption assay with proline or ATP varied (competition); type: biochemical; details: from IC50 vs [ATP] fit
T1 construct: B2, AA7–746 (minus 6 amino acids, or 99% of the ORF); made in house; host or cells: E. coli BL21(DE3)R3 Rosetta Oxford

[2] = system: isolated 3D7 trophozoites (pHi); experiment: pH assay, BCECF-loaded isolated trophozoites; details: TCMDC-124506 5 μM; KAE609 50 nM
[3] = target: T1, PfProRS; experiment: biochemical; type: biochemical; details: for IC50: read-out: Pf ProRS IC50; for PfProRS activity in words: SAR text to Table 1
[4] = system: Plasmodium falciparum strain 3D7; experiment: Plasmodium falciparum growth inhibition, SYBR green fluorescence; type: cell-based; details: 3D7, growth inhibition, read-out: Pf (3D7) EC50
[5] = target: T1, PfProRS; experiment: aminoacylation assay ([3H]-L-proline incorporation into tRNA); type: biochemical
[6] = target: T1, PfProRS; experiment: luciferase ATP depletion assay, HTS format; type: biochemical
[7] = target: T2, HsProRS (Homo sapiens, UniProt P07814); experiment: luciferase ATP depletion assay, counter-screen; type: biochemical
T2 construct: made in house
T2 sequence (P07814 1007-1512 limits assumed): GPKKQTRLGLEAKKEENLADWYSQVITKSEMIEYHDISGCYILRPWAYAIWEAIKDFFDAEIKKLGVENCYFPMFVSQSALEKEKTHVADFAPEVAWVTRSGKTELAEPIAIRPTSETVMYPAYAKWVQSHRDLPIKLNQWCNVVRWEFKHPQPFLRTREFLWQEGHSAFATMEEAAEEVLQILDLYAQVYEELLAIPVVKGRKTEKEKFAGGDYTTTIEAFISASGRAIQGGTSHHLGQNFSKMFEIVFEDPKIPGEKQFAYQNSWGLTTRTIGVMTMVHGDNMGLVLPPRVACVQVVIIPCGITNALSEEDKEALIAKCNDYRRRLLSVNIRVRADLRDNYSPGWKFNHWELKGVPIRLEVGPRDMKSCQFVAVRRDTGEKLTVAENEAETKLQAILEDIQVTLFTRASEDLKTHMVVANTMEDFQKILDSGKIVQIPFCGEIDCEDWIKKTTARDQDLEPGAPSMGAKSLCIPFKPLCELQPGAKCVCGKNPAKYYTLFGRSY

[8] = target: T1, PfProRS; type: binding
[9] = read-out: Percentage inhibition Pf ProRS

T1 sequence (Q8I5R7 7-746): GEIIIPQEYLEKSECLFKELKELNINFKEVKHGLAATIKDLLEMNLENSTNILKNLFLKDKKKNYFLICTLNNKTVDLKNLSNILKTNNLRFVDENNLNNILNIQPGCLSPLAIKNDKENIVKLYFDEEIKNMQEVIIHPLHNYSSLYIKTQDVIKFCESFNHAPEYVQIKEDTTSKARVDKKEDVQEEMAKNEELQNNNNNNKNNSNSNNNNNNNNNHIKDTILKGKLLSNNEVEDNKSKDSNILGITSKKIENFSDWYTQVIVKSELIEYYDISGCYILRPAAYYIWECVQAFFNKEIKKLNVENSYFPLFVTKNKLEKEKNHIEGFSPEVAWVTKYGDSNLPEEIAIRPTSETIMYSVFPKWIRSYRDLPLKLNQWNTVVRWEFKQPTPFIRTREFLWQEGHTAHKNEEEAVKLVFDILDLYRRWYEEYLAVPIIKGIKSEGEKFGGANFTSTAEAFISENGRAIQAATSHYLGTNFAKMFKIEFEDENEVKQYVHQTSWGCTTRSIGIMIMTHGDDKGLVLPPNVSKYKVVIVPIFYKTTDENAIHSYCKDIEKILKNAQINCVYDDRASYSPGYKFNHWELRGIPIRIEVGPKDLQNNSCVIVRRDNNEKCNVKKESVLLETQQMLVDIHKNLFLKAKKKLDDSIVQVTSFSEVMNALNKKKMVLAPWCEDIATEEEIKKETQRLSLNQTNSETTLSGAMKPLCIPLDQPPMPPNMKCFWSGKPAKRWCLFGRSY

## Nc1ncnc2c1ncn2[C@@H]1O[C@H](COP(=O)(O)OP(=O)(O)OP(=O)(O)O)[C@@H](O)[C@H]1O [ATP]
[1]
  Km: 6.51 ± 1.84 µM

## C[C@H]1Cc2c([nH]c3cc(Cl)c(F)cc23)[C@@]2(N1)C(=O)Nc1ccc(Cl)cc12 [KAE609, reference compound]
[2]
  effect on parasite cytosolic pH (pHi): caused an increase in pHi

## Cn1nc(CCC(N)=O)c(-c2ccc(F)cc2)c1NC(=O)Nc1ccc(F)cc1 [Compound 21]
[3]
  IC50: 8 µM
[4]
  EC50: > 50 µM

## O=C(CC1NCCCC1O)Cn1cnc2cc(Br)c(Cl)cc2c1=O (stereo not shown) [halofuginone]
[5]
  IC50: 0.011 µM
[6]; PfProRS IC50, 75 nM ProRS, 60 μM proline, 6 μM ATP, 400 μg/mL yeast tRNA, 2 h 37 °C
  IC50: 0.28 µM
[6]; PfProRS IC50, luciferase ATP depletion assay
  IC50: 0.275 µM
[6]; [9]
  inhibition at 0.02 µM: -0.05%
  inhibition at 0.05 µM: 2.49%
  inhibition at 0.1 µM: 10.8%
  inhibition at 0.2 µM: 34.4%
  inhibition at 0.39 µM: 69%
  inhibition at 0.78 µM: 90%
  inhibition at 1.56 µM: 98.9%
  inhibition at 3.13 µM: 99.1%
  inhibition at 6.25 µM: 95%
  inhibition at 12.5 µM: 93.6%
  inhibition at 25 µM: 93.9%
[7]; 75 nM ProRS, 60 μM proline, 6 μM ATP, 400 μg/mL yeast tRNA, 2 h 37 °C
  IC50: 2 µM and 2.13 µM
[7]; HsProRS vs PfProRS
  fold difference between PfProRS and HsProRS IC50: ≤ 8 fold
[7]; at 0.02 μM, read-out: Percentage inhibition Hs ProRS
  inhibition at 0.02 µM: 0.15%
[7]; at 0.05 μM, read-out: Percentage inhibition Hs ProRS
  inhibition at 0.05 µM: -0.14%
[7]; at 0.10 μM, read-out: Percentage inhibition Hs ProRS
  inhibition at 0.1 µM: 0.21%
[7]; at 0.20 μM, read-out: Percentage inhibition Hs ProRS
  inhibition at 0.2 µM: 1.95%
[7]; at 0.39 μM, read-out: Percentage inhibition Hs ProRS
  inhibition at 0.39 µM: 9.43%
[7]; at 0.78 μM, read-out: Percentage inhibition Hs ProRS
  inhibition at 0.78 µM: 24.7%
[7]; at 1.56 μM, read-out: Percentage inhibition Hs ProRS
  inhibition at 1.56 µM: 46.5%
[7]; at 3.13 μM, read-out: Percentage inhibition Hs ProRS
  inhibition at 3.13 µM: 64.1%
[7]; at 6.25 μM, read-out: Percentage inhibition Hs ProRS
  inhibition at 6.25 µM: 74.3%
[7]; at 12.50 μM, read-out: Percentage inhibition Hs ProRS
  inhibition at 12.5 µM: 85.7%
[7]; at 25.00 μM, read-out: Percentage inhibition Hs ProRS
  inhibition at 25 µM: 89.2%
[8]; full-length recombinant protein B1
  change in thermal stability: no increase in stability
[8]; recombinant protein B2
  shift in stability (thermal melt): 6 °

## Cn1nc(CCO)c(-c2ccc(F)cc2)c1NC(=O)Nc1ccc(F)cc1 [Compound 19]
[3]
  IC50: 18 µM
[4]
  EC50: 20 µM

## Cn1nc(CCC#N)c(-c2ccc(F)cc2)c1NC(=O)Nc1ccc(F)cc1 [Compound 24]
[3]
  IC50: 9 µM
[4]
  EC50: 6 µM

## CC(C)(C)OC(=O)N1CCC[C@@H](O)[C@@H]1CC(=O)Cn1cnc2cc(Br)c(Cl)cc2c1=O [N-Boc-halofuginone]
[5]; Hill slope = 1, Figure S2, read-out: IC50, [3H]-L-proline aminoacylation incorporation assay
  IC50: > 3 µM
[5]; at the highest concentrations tested
  inhibition of aminoacylation: < 20%

## Cn1nc(C(N)=O)c(-c2ccc(F)cc2)c1NC(=O)Nc1ccc(F)cc1 [Compound 20]
[3]
  IC50: 14 µM
[4]
  EC50: > 50 µM

## Cn1nc(C(F)(F)F)c(-c2ccc(F)cc2)c1NC(=O)Nc1cccc(F)c1 [Compound 4]
[3]
  IC50: 8 µM
[4]
  EC50: 0.35 µM

## Cn1nc(CCN2CCOCC2)c(-c2ccc(F)cc2)c1NC(=O)Nc1ccc(F)cc1 [Compound 26]
[3]
  IC50: 3 µM
[4]
  EC50: 10 µM

## O=C(Nc1ccc(F)cc1)Nc1[nH]nc(C(F)(F)F)c1-c1ccc(F)cc1 [Compound 7]
[3]
  PfProRS activity in words: inactive
  IC50: > 50 µM
[4]
  EC50: > 50 µM

## COc1ccc(NC(=O)Nc2c(-c3ccc(F)cc3)c(C(F)(F)F)nn2C)cc1 [Compound 5]
[3]
  IC50: > 50 µM
[4]
  EC50: > 50 µM

## Cn1nc(C(F)(F)F)c(-c2cccc(CCO)c2)c1NC(=O)Nc1ccc(F)cc1 [Compound 15]
[3]
  IC50: 13 µM
[4]
  EC50: 4 µM

## Cn1nc(C(F)(F)F)c(-c2cccc(C(F)(F)F)c2)c1NC(=O)Nc1ccc(F)cc1 [Compound 17]
[3]
  IC50: > 50 µM
[4]
  EC50: 0.9 µM

## Cn1nc(C(F)(F)F)c(-c2ccccc2CO)c1NC(=O)Nc1ccc(F)cc1 [Compound 13]
[3]
  drop in PfProRS potency versus hit compound: 4 fold
  IC50: 20 µM
[4]
  EC50: 8 µM

## Cn1nc(C(F)(F)F)c(-c2ccc(F)cc2)c1NC(=O)Nc1ccc(F)cc1F [Compound 3]
[3]
  IC50: 2.5 µM
[4]
  EC50: 0.7 µM

## Cn1ncc(-c2ccc(F)cc2)c1NC(=O)Nc1ccc(F)cc1 [Compound 18]
[3]
  IC50: > 50 µM
[4]
  EC50: 27 µM

## Cn1nc(C(F)(F)F)c(-c2cccc(CNS(C)(=O)=O)c2)c1NC(=O)Nc1ccc(F)cc1 [Compound 16]
[3]
  PfProRS activity in words: inactive
  IC50: > 50 µM
[4]
  EC50: 10 µM

## Cn1nc(C(F)(F)F)c(Br)c1NC(=O)Nc1ccc(F)cc1 [Compound 11, 1-[4-bromo-2-methyl-5-(trifluoromethyl)pyrazol-3-yl]-3-(4-fluorophenyl)urea]
[3]
  PfProRS activity in words: inactive
  IC50: > 50 µM
[4]
  EC50: 16 µM

## CN(C)CCc1nn(C)c(NC(=O)Nc2ccc(F)cc2)c1-c1ccc(F)cc1 [Compound 25]
[3]
  IC50: 4 µM
[4]
  EC50: > 50 µM

## Cn1nc(C(F)(F)F)cc1NC(=O)Nc1ccc(F)cc1 [Compound 10, 1-(4-fluorophenyl)-3-(1-methyl-3-(trifluoromethyl)-1H-pyrazol-5-yl)urea]
[3]
  PfProRS activity in words: inactive
  IC50: > 50 µM
[4]
  EC50: 46 µM

## NC(=O)Cn1nc(C(F)(F)F)c(-c2ccc(F)cc2)c1NC(=O)Nc1ccc(F)cc1 [Compound 9]
[3]
  IC50: > 50 µM
[4]
  EC50: > 50 µM

## Cn1nc(CC#N)c(-c2ccc(F)cc2)c1NC(=O)Nc1ccc(F)cc1 [Compound 23]
[3]
  IC50: 6 µM
[4]
  EC50: 4 µM

## Cn1nc(C(F)(F)F)c(-c2ccc(F)cc2)c1N [Compound 2]
[3]
  PfProRS activity in words: inactive
  IC50: > 50 µM
[4]
  EC50: 5 µM
